Test results from patent US9517279B2, “2-alkoxy-11-hydroxyaporphine derivatives and uses thereof” (The McLean Hospital Corporation, priority 2010, dated 2016).
Counter-ions that a name gives are not always drawn. Like-named read-outs stand apart in the source and are kept apart here.

How the values were obtained:
D1^low = molecular target: T1, D1^low (Rattus norvegicus, UniProt P18901); experiment: Competitive radioreceptor binding, D1 low-affinity state, rat striatum [3H]SCH23390
T1 construct: membrane-containing homogenates of rat corpus striatum tissue; from tissue; host or cells: rat corpus striatum

D1^high = molecular target: T2, D1^high (Rattus norvegicus, UniProt P18901); experiment: Competitive radioreceptor binding, D1 high-affinity state, rat striatum [3H]SCH23390
T2 construct: membrane-containing homogenates of rat corpus striatum tissue; from tissue; host or cells: rat corpus striatum

D2^low = molecular target: T3, D2^low (Rattus norvegicus, UniProt P61169); experiment: Competitive radioreceptor binding, D2 low-affinity state, rat striatum [3H]domperidone
T3 construct: membrane-containing homogenates of rat corpus striatum tissue; from tissue; host or cells: rat corpus striatum

D2^high = molecular target: T4, D2^high (Rattus norvegicus, UniProt P61169); experiment: Competitive radioreceptor binding, D2 high-affinity state, rat striatum [3H]domperidone; conditions: for D2^high binding affinity (in words): comparison with analogue
T4 construct: membrane-containing homogenates of rat corpus striatum tissue; from tissue; host or cells: rat corpus striatum

human D3 clone = molecular target: T5, human D3 clone (Homo sapiens, UniProt P35462); experiment: Competitive binding, human D3 clone [3H]domperidone; conditions: for Ki: human D3 clone, [3H]domperidone
T5 construct: expressed in transfected cells

D3^high = molecular target: T6, D3^high (Homo sapiens, UniProt P35462); experiment: D3 high-affinity state binding (footnote g); conditions: footnote g of Table 1
T6 construct: expressed in transfected cells

D1 human clone (D1^low) = molecular target: T7, D1 human clone (D1^low) (Homo sapiens, UniProt P21728); experiment: Competitive binding, D1 human clone [3H]SCH23390
T7 construct: expressed in transfected cells

D3 rat clone = molecular target: T8, D3 rat clone (Rattus norvegicus, UniProt P19020); experiment: Competitive binding, D3 rat clone [3H]domperidone
T8 construct: expressed in transfected cells

[1] = rat striatum, [3H]domperidone, read-out: Ki D2^high
[2] = rat striatum, [3H]SCH23390, read-out: Ki D1^low (class)

T1 sequence (P18901 whole entry): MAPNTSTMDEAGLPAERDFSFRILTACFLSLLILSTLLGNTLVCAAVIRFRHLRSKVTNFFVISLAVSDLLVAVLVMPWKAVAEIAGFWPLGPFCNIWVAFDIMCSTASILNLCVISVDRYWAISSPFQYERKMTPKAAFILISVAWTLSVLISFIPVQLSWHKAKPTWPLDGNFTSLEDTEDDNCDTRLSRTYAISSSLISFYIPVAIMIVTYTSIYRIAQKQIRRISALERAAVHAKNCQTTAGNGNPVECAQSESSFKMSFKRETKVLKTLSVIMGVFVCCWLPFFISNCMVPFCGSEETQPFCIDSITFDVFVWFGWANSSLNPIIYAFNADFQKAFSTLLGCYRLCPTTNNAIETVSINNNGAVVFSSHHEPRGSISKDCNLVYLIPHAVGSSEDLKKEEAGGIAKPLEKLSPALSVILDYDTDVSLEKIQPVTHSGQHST
T2 sequence (P18901 whole entry): as above
T8 sequence (P19020 whole entry): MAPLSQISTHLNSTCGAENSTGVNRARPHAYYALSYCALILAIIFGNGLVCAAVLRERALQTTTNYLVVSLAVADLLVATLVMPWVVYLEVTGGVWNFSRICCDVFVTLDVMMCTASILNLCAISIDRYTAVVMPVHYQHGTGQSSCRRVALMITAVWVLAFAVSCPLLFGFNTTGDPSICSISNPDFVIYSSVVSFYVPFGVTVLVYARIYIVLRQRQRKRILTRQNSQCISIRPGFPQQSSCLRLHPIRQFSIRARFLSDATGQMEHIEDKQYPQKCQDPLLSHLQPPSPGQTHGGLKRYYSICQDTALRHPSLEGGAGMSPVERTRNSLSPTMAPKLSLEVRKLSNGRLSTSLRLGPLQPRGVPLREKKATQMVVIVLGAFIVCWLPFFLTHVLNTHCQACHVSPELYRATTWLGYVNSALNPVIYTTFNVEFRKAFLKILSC
T3 sequence (P61169 whole entry): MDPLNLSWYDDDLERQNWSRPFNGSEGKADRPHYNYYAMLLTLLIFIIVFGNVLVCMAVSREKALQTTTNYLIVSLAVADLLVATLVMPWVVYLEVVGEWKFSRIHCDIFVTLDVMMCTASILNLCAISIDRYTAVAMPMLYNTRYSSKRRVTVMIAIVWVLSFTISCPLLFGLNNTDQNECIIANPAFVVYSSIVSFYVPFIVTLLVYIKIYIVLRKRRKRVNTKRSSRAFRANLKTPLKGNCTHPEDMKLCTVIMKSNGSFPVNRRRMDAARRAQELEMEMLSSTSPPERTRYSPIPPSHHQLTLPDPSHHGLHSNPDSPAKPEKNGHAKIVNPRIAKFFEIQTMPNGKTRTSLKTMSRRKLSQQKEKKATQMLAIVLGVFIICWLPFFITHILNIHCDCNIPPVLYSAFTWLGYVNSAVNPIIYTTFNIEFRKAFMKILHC
T4 sequence (P61169 whole entry): as above
T5 sequence (P35462 whole entry): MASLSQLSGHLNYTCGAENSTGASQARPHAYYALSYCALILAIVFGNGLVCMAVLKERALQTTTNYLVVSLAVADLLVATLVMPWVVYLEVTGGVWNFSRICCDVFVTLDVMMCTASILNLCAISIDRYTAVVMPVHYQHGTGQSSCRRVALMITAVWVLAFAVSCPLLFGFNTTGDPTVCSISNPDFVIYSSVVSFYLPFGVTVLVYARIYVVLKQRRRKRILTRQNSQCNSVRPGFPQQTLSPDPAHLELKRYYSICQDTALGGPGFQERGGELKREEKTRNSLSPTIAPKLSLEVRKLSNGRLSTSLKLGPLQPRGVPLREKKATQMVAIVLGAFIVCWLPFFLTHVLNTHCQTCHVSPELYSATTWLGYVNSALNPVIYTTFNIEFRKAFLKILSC
T7 sequence (P21728 whole entry): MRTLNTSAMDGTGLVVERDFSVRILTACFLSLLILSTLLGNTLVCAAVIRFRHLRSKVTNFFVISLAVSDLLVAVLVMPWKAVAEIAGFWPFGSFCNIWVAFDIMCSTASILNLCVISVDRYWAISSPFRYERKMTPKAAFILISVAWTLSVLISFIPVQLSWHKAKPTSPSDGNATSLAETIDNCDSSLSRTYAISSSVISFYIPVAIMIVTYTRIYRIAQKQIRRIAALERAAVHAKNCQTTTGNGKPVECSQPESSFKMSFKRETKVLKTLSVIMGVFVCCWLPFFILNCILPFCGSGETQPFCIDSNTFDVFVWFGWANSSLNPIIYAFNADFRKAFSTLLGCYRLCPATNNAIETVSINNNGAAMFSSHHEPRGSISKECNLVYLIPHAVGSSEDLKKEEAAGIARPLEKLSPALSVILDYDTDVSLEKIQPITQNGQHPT
T6 sequence (P35462 whole entry): as the sequence (P35462 whole entry) above

Structure (SMILES) | Ki D1^high (D1^high) | Ki (D2^low) | Ki (D2^high; [1]) | melting point | Ki (D1^low; [2]) | also measured
CCCN1CCc2cc(OCCCF)cc3c2[C@H]1Cc1ccc(O)c(O)c1-3 [8a, R(−)-2-(3-fluoropropanoxy)-NPA] | No D1^high | 3000 nM | 28 ± 15 nM | – | – | Ki (D1^low): > 2000 nM; Ki (D2^high): 27 nM; Ki (human D3 clone): 0.43 ± 0.064 µM
CN1CCc2cc(OCCCF)cc3c2[C@H]1Cc1ccc(O)c(O)c1-3 (as salt: HCl) [8f, R(−)-2-(3-Fluoropropanoxy) 10,11-dihydroxyaporphine] | – | – | – | 170 to 175 °C (dec.) | – | –
CCN1CCc2cc(OCCI)cc3c2[C@H]1Cc1ccc(O)c(O)c1-3 (as salt: HCl) [8e, R(−)-2-iodoethoxy-N-ethylnorapomorphine] | – | – | – | 155 to 163 °C (dec.) | – | –
CCN1CCc2cc(OCCI)cc3c2[C@H]1Cc1ccc(O)c(O)c1-3 [8e, R(−)-2-iodoethoxy-N-ethylnorapomorphine] | No D1^high | 770 ± 230 nM | – | – | > 2000 nM | Ki (D2^high): 5 ± 2.3 nM; D2^high binding affinity (in words) (D2^high): slight drop; selectivity for D2^high over D1, D3, and D2^low (D2^high; in words): high selectivity; Ki (human D3 clone; bound given in μM): > 10 µM
CCN1CCc2cc(OCCF)cc3c2[C@H]1Cc1ccc(O)c(O)c1-3 [8d, R(−)-2-fluoroethoxy-N-ethylnorapomorphine] | No D1^high | 2400 ± 1500 nM | 2.5 nM | – | > 2000 nM | fold improvement in D2^high binding affinity (D2^high; compared with 8c): more than 2 fold
CCN1CCc2cc(OCCCF)cc3c2[C@H]1Cc1cccc(O)c1-3 (as salt: HCl) [11c] | – | – | – | 156 to 158 °C (dec.) | – | –
CN1CCc2cc(OCCF)cc3c2[C@H]1Cc1ccc(O)c(O)c1-3 (as salt: salt) [8g, R(−)-2-(2-Fluoroethoxy) 10,11-dihydroxyaporphine] | – | – | – | 236 to 238 °C (dec.) | – | –
CN1CCc2cc(OCCF)cc3c2[C@H]1Cc1ccc(O)c(O)c1-3 [8g, R(−)-2-(2-Fluoroethoxy) 10,11-dihydroxyaporphine] | No D1^high | 620 ± 260 nM | – | – | > 2000 nM | D3 affinity (in words) (human D3 clone): no detectable affinity
CN1CCc2cc(OCCCF)cc3c2[C@H]1Cc1ccc(O)c(O)c1-3 [8f, R(−)-2-(3-Fluoropropanoxy) 10,11-dihydroxyaporphine] | No D1^high | – | 31 nM | – | > 2000 nM | D3^high affinity (D3^high): did not show any D3^high affinity
CN1CCc2cc(OCCF)cc3c2[C@H]1Cc1cccc(O)c1-3 [11g, R(−)-2-(2-fluoroethoxy)-11-hydroxyaporphine] | – | 480 ± 130 nM | 1.2 ± 0.4 nM | – | – | Ki (human D3 clone): 0.89 ± 0.13 µM
CCN1CCc2cc(OCCF)cc3c2[C@H]1Cc1cccc(O)c1-3 [11d, R(−)-2-(2-fluoroethoxy)-11-hydroxy-N-n-ethylnoraporphine] | No D1^high | – | – | – | – | Ki (D1 human clone (D1^low); D1 human clone, [3H]SCH23390, read-out: Ki D1^low): 810 ± 120 nM; Ki (D3 rat clone): 550 ± 89 nM
Oc1cccc2c1-c1cccc3c1[C@@H](C2)N(CCCF)CC3 [compound 6, R(−)-11-Hydroxy-N-(3-fluoropropyl)noraporphine] | No D1^high | 860 ± 170 nM | 6.9 ± 2.1 nM | – | > 2000 nM | Ki (human D3 clone; bound given in μM): > 10 µM
Oc1cccc2c1-c1cccc3c1[C@@H](C2)N(CCCF)CC3 (as salt: HCl) [compound 6, R(−)-11-Hydroxy-N-(3-fluoropropyl)noraporphine] | – | – | – | 195 to 197 °C (dec.) | – | –
CCCN1CCc2cc(OCCF)cc3c2[C@H]1Cc1ccc(O)c(O)c1-3 (as salt: HCl) [8b, R(−)-2-Fluoroethyoxy-NPA] | – | – | – | 203 to 205 °C (dec.) | – | –
CCCN1CCc2cccc3c2[C@H]1Cc1cccc(O)c1-3 [3b, reference compound] | – | – | – | – | – | Ki (human D3 clone): 1.7 ± 0.25 µM
CCN1CCc2cc(OCCCF)cc3c2[C@H]1Cc1ccc(O)c(O)c1-3 (as salt: HCl) [8c, R(−)-2-(3-Fluoropropanoxy) 10,11-dihydroxy-N-ethylnoraporphine] | – | – | – | 174 to 176 °C (dec.) | – | –
CCCN1CCc2cc(OCCF)cc3c2[C@H]1Cc1cccc(O)c1-3 [11b, R(−)-2-(2-fluoroethoxy)-11-hydroxy-N-n-propylnoraporphine] | No D1^high | 56 ± 37 nM | 3.5 ± 2 nM | – | – | Ki (D1^low): > 2000 nM; D2^high binding affinity (in words) (D2^high): about the same; Ki (D3 rat clone): 410 ± 62 nM
CCN1CCc2cc(OCCCF)cc3c2[C@H]1Cc1ccc(O)c(O)c1-3 [8c, R(−)-2-(3-Fluoropropanoxy) 10,11-dihydroxy-N-ethylnoraporphine] | No D1^high | 1600 ± 780 nM | 6.1 ± 3 nM | – | > 2000 nM | fold increase in D2^high affinity (D2^high; in comparison to 8a): ~4 fold
CCCN1CCc2cc(OCCCF)cc3c2[C@H]1Cc1cccc(O)c1-3 [11a] | No D1^high | – | – | – | > 2000 nM | Ki (D3 rat clone): 100 ± 14 nM
CCCN1CCc2cc(F)cc3c2[C@H]1Cc1ccc(O)c(O)c1-3 [2c, 2-F-NPA, reference compound] | No D1^high | 1800 ± 340 nM | 2.7 ± 1.3 nM | – | > 2000 nM | –
CCCN1CCc2cc(OC)cc3c2[C@H]1Cc1ccc(O)c(O)c1-3 [2b, 2-MeO-NPA, reference compound] | – | 805 ± 140 nM | 5.1 ± 1.3 nM | – | – | Ki (D1^low): > 2000 nM; Ki (D1^high): 8.1 ± 0.7 nM
CCCN1CCc2cc(OCCF)cc3c2[C@H]1Cc1ccc(O)c(O)c1-3 [8b, R(−)-2-Fluoroethyoxy-NPA] | No D1^high | 990 ± 35 nM | 3.7 nM | – | > 2000 nM | Ki (human D3 clone): 2.2 ± 0.33 µM
CCN1CCc2cc(OCCCF)cc3c2[C@H]1Cc1cccc(O)c1-3 [11c] | No D1^high | 400 ± 290 nM | 3.2 ± 2.2 nM | – | – | Ki (D1 human clone (D1^low)): 1300 ± 200 nM; D2^high binding affinity (in words) (D2^high): overall improved binding affinity; Ki (D3 rat clone): 240 ± 33 nM
CCN1CCc2cc(OCCF)cc3c2[C@H]1Cc1ccc(O)c(O)c1-3 (as salt: HCl) [8d, R(−)-2-fluoroethoxy-N-ethylnorapomorphine] | – | – | – | 163 to 165 °C | – | –
